Experimental data from US10167262B2, “Herbicidal substituted 3-arylpyrazoles” (FMC CORPORATION, priority 2014, dated 2019).

Legend:
Assay type in all cases: in vivo
[1] = system: barnyardgrass (Echinochloa crus-galli); test: Test A pre-/postemergence greenhouse herbicide test, visual injury rating 0-100
How it was run: (§1)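 Formulated in non-phytotoxic solvent with surfactant, compounds were applied pre- and postemergence simultaneously. Soil: loam–sand blend. Visual injury, 0 = no effect to 100 = complete control, ~10 days.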

[2] = system: velvetleaf (Abutilon theophrasti); test: as above
How it was run: as §1

[3] = system: giant foxtail (Setaria faberii); test: as above
How it was run: as §1

[4] = system: pigweed (Amaranthus retroflexus); test: as above
How it was run: as §1

corn (Zea mays) = test: as above
How it was run: as §1

[5] = system: morningglory (Ipomoea spp.); test: as above; settings: Preemergence
How it was run: as §1

[6] = system: wheat (Triticum aestivum); test: as above
How it was run: as §1

[7] = system: large (Lg) crabgrass (Digitaria sanguinalis); test: as above
How it was run: as §1

wild oat (Avena fatua) = test: Test C postemergence greenhouse test, plant response rating 0-100
How it was run: (§2)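 Formulated compounds applied postemergence; plants 1- to 4-leaf stage. Evaluated visually vs. untreated controls after roughly two weeks (13–15 d) under greenhouse conditions; 100 denotes complete control.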

[8] = system: chickweed (common chickweed, Stellaria media); test: as above
How it was run: as §2

kochia (Kochia scoparia) = test: as above
How it was run: as §2

[9] = system: giant foxtail (Setaria faberii); test: Test C pre-/postemergence greenhouse test, plant response rating 0-100; settings: Postemergence
How it was run: (§3)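 Scores run from 0, no effect, to 100, complete control, assigned by eye after treated plants and controls spent 13 to 15 days in a greenhouse. Soil-applied treatment went onto freshly sown seed in loam and sand; foliar treatment hit seedlings at the 1- to 4-leaf stage.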

[10] = system: winter wheat (Triticum aestivum); test: as above; settings: Postemergence
How it was run: as §3

[11] = system: johnsongrass (Sorghum halepense); test: as above; settings: Postemergence
How it was run: as §3

CC(C)n1cc(C(=O)c2ccccc2)c(-c2cc(Cl)cc(Cl)c2)n1 [Compound 44]
55: Plant response rating (0 to 100), Kochia (kochia (Kochia scoparia); 62 g ai/ha)
80: Plant response rating (0 to 100 scale), Pigweed ([4]; Postemergence, 125 g ai/ha)
40: Plant response rating (0 to 100 scale), Velvetleaf ([2]; Preemergence, 500 g ai/ha)
90: Plant response rating (0 to 100 scale), Velvetleaf ([2]; Postemergence, 125 g ai/ha) | Plant response rating (0 to 100 scale), Velvetleaf ([2]; Postemergence, 500 g ai/ha)
20: Velvetleaf plant response rating (0 = no effect, 100 = complete control) ([2]; Preemergence, 125 g ai/ha) | Plant response rating (0 to 100), Chickweed ([8]; 31 g ai/ha) | Plant response rating, Foxtail, Giant ([9]; 250 g ai/ha, scale 0 to 100)
100: Plant response rating (0 to 100 scale), Pigweed ([4]; Postemergence, 500 g ai/ha)
35: Plant response rating (0 to 100), Chickweed ([8]; 62 g ai/ha)
50: Plant response rating, Chickweed ([8]; 250 g ai/ha, scale 0 to 100)
70: Plant response rating (0 to 100 scale), Pigweed ([4]; Preemergence, 500 g ai/ha)
65: Plant response rating (0 to 100), Kochia (kochia (Kochia scoparia); 125 g ai/ha) | Plant response rating, Kochia (kochia (Kochia scoparia); 250 g ai/ha, scale 0 to 100)
0: Plant response rating (0 to 100 scale), Barnyardgrass ([1]; Postemergence, 125 g ai/ha) | Plant response rating (0 to 100 scale), Barnyardgrass ([1]; Postemergence, 500 g ai/ha) | Barnyardgrass plant response rating (0 = no effect, 100 = complete control) ([1]; Preemergence, 125 g ai/ha) | Plant response rating (0 to 100 scale), Barnyardgrass ([1]; Preemergence, 500 g ai/ha) | Plant response rating (0 to 100 scale), Foxtail, Giant ([3]; Postemergence, 125 g ai/ha) | Plant response rating (0 to 100 scale), Foxtail, Giant ([3]; Postemergence, 500 g ai/ha) | Foxtail, Giant plant response rating (0 = no effect, 100 = complete control) ([3]; Preemergence, 125 g ai/ha) | Plant response rating (0 to 100 scale), Foxtail, Giant ([3]; Preemergence, 500 g ai/ha) | Pigweed plant response rating (0 = no effect, 100 = complete control) ([4]; Preemergence, 125 g ai/ha) | Plant response rating (0 to 100 scale), Corn (corn (Zea mays); Postemergence, 125 g ai/ha) | Plant response rating (0 to 100 scale), Corn (corn (Zea mays); Postemergence, 500 g ai/ha) | Corn plant response rating (0 = no effect, 100 = complete control) (corn (Zea mays); Preemergence, 125 g ai/ha) | Plant response rating (0 to 100 scale), Corn (corn (Zea mays); Preemergence, 500 g ai/ha) | Morningglory plant response rating (0 = no effect, 100 = complete control) ([5]; 125 g ai/ha) | Plant response rating (0 to 100 scale), Morningglory ([5]; 500 g ai/ha) | Plant response rating (0 to 100 scale), Wheat ([6]; Postemergence, 125 g ai/ha) | Plant response rating (0 to 100 scale), Wheat ([6]; Postemergence, 500 g ai/ha) | Wheat plant response rating (0 = no effect, 100 = complete control) ([6]; Preemergence, 125 g ai/ha) | Plant response rating (0 to 100 scale), Wheat ([6]; Preemergence, 500 g ai/ha) | Plant response rating (0 to 100 scale), Crabgrass, Large ([7]; Postemergence, 125 g ai/ha) | Plant response rating (0 to 100 scale), Crabgrass, Large ([7]; Postemergence, 500 g ai/ha) | Crabgrass, Large plant response rating (0 = no effect, 100 = complete control) ([7]; Preemergence, 125 g ai/ha) | Plant response rating (0 to 100 scale), Crabgrass, Large ([7]; Preemergence, 500 g ai/ha) | Plant response rating (0 to 100), Oat, Wild (wild oat (Avena fatua); 62 g ai/ha) | Plant response rating (0 to 100), Oat, Wild (wild oat (Avena fatua); 125 g ai/ha) | Plant response rating, Oat, Wild (wild oat (Avena fatua); 250 g ai/ha, scale 0 to 100) | Plant response rating (0 to 100), Foxtail, Giant ([9]; 31 g ai/ha) | Plant response rating (0 to 100), Foxtail, Giant ([9]; 62 g ai/ha) | Plant response rating (0 to 100), Foxtail, Giant ([9]; 125 g ai/ha) | Plant response rating (0 to 100), Wheat ([10]; 62 g ai/ha) | Plant response rating (0 to 100), Wheat ([10]; 125 g ai/ha) | Plant response rating, Wheat ([10]; 250 g ai/ha, scale 0 to 100) | Plant response rating (0 to 100), Johnsongrass ([11]; 62 g ai/ha) | Plant response rating (0 to 100), Johnsongrass ([11]; 125 g ai/ha) | Plant response rating, Johnsongrass ([11]; 250 g ai/ha, scale 0 to 100)
